Laboratory results reported in patent US20080009418A1, “Selective Inhibitors” (Alchemia LTD., priority 2004, published 2008).

Assays:
[1] = target: T1, Human κ-Opioid (KOP) (Homo sapiens, UniProt P41145); test: Radioligand binding, human κ-opioid (KOP) membranes, filtration, [3H]-Diprenorphine; settings: compound at 10 μM, [3H]-Diprenorphine
T1 construct: purchased Perkin Elmer Biosignal
Outline: (§1)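 Percent inhibition of radioligand binding measured on recombinant human membranes: NK1 with [125I]-Substance P, KOP with [3H]-Diprenorphine. Incubation 1 h at room temperature, then harvest onto 0.3% PEI-soaked filters, cold Tris-HCl pH 7.4 washes and scintillation counting; non-specific binding from reference ligand wells.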

[2] = target: T2, Human Melanocortin (MC3) (Homo sapiens, UniProt P41968); test: Radioligand binding, human melanocortin MC3 membranes, FlashPlate, [125I]-NDP-αMSH; settings: compound at 10 μM, [125I]-NDP-αMSH
T2 construct: purchased Perkin Elmer Biosignal
Outline: (§2)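 Cloned human receptor membranes were coated onto FlashPlate wells and incubated with radioligand and compound (added from a 0.5 mM DMSO daughter plate) for 1 hour at room temperature in the dark. Scintillation counting gave percent inhibition, with DMSO defining total and reference ligand defining non-specific binding.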

[3] = target: T3, Human opioid (ORL1) (Homo sapiens, UniProt P41146); test: Radioligand binding, human opioid ORL1 membranes, FlashPlate, [125I]-Nociceptin; settings: compound at 10 μM, [125I]-Nociceptin
T3 construct: purchased Perkin Elmer Biosignal
Outline: as §2

[4] = target: T4, Human neuropeptide Y (NPY-Y1) (Homo sapiens, UniProt P25929); test: Radioligand binding, human neuropeptide Y NPY-Y1 membranes, FlashPlate, [125I]-PYY; settings: compound at 10 μM, [125I]-PYY
T4 construct: purchased Perkin Elmer Biosignal
T4 sequence (P25929 1-384): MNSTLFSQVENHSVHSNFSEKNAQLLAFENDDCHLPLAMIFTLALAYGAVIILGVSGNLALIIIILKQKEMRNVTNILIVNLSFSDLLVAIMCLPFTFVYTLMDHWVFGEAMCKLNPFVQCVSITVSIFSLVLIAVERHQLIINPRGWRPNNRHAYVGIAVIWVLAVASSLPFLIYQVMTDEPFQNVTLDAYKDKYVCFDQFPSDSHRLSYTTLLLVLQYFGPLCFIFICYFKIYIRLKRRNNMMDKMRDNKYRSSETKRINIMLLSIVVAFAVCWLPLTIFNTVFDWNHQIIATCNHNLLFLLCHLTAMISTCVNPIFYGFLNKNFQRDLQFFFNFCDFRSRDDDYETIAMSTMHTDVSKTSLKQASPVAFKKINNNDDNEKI
Outline: as §2

[5] = target: T5, Human μ-opioid (MOP) (Homo sapiens, UniProt P35372); test: Radioligand binding, human μ-opioid (MOP) membranes, FlashPlate, [3H]-Naloxone; settings: compound at 10 μM, [3H]-Naloxone
T5 construct: purchased Perkin Elmer Biosignal
Outline: as §2

[6] = target: T6, Human Melanocortin (MC4) (Homo sapiens, UniProt P32245); test: Radioligand binding, human melanocortin MC4 membranes, FlashPlate, [125I]-NDP-αMSH; settings: compound at 10 μM, [125I]-NDP-αMSH
T6 construct: purchased Perkin Elmer Biosignal
Outline: as §2

[7] = target: T7, Human δ-opioid (DOP) (Homo sapiens, UniProt P41143); test: Radioligand binding, human δ-opioid (DOP) membranes, FlashPlate, [3H]-Bremazocine; settings: compound at 10 μM, [3H]-Bremazocine
T7 construct: purchased Perkin Elmer Biosignal
Outline: as §2

[8] = target: T8, Human melanocortin (MC5) (Homo sapiens, UniProt P33032); test: Radioligand binding, human melanocortin MC5 membranes, FlashPlate, [125I]-NDP-αMSH; settings: compound at 10 μM, [125I]-NDP-αMSH
T8 construct: purchased Perkin Elmer Biosignal
Outline: as §2

[9] = target: T9, Human neurokinin (NK1) (Homo sapiens, UniProt P25103); test: Radioligand binding, human neurokinin NK1 membranes, filtration, [125I]-Substance P; settings: compound at 10 μM, [125I]-Substance P
T9 construct: purchased Perkin Elmer Biosignal
Outline: as §1

[10] = target: T10, Mouse urotensin (mUR2) (Mus musculus, UniProt Q8VIH9); test: Radioligand binding, mouse urotensin mUR2 membranes, FlashPlate, [125I]-Urotensin II; settings: compound at 10 μM, [125I]-Urotensin II
T10 construct: purchased Perkin Elmer Biosignal
T10 sequence (Q8VIH9 1-385): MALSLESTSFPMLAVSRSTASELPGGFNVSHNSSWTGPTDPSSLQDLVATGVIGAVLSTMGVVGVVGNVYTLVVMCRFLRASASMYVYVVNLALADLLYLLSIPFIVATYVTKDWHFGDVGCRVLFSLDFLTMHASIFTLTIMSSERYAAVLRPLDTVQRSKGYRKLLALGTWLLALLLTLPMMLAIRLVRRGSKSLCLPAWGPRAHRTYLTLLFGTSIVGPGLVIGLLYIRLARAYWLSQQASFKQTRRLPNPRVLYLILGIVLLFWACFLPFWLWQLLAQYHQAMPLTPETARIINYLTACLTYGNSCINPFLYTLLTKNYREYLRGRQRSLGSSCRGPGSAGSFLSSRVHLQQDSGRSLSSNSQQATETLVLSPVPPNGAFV
Outline: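 Cloned mouse urotensin (mUR2) receptor membranes from Perkin Elmer Biosignal were immobilized in FlashPlate microplates using a proprietary coating. Each well got 19.5 μl buffer, then 0.5 μl of DMSO, reference ligand, or compound. Adding 5 μl of [125I]-Urotensin II, diluted to 5× final concentration in binding buffer, started binding. Plates were sealed with TopSeal-A and incubated 1 hour at room temperature in the dark. Wells were counted for 30 seconds each on a TopCount after a 60-second delay, and percentage inhibition was calculated.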

[11] = target: T11, Human melanin-concentrating hormone (MCH1) (Homo sapiens, UniProt Q99705); test: Radioligand binding, human melanin-concentrating hormone MCH1 membranes, FlashPlate, [125I]-S36057; settings: compound at 10 μM; for A6: inhibition of radioligand binding, human melanin-concentrating hormone (MCH1): [125I]-S36057
T11 construct: purchased Perkin Elmer Biosignal
Outline: as §2

T3 sequence (P41146 whole entry): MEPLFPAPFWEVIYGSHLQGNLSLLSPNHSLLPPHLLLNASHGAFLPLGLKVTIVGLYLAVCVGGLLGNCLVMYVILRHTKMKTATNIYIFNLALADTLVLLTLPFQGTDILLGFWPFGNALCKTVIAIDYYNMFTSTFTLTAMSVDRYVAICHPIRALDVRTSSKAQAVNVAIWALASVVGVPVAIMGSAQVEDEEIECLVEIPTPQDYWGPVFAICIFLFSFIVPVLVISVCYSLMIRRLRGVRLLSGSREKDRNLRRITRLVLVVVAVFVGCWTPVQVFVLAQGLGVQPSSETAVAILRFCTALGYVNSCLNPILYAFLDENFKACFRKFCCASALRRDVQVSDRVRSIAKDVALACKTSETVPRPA
T8 sequence (P33032 whole entry): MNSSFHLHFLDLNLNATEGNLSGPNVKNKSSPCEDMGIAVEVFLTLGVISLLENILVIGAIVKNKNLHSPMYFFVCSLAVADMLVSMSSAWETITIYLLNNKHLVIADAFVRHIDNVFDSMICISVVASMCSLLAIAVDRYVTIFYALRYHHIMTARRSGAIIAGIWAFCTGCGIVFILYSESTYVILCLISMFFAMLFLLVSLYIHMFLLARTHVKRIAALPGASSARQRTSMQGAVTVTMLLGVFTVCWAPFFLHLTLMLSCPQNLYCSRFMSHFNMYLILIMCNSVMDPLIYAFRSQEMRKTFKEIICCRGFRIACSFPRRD
T2 sequence (P41968 whole entry): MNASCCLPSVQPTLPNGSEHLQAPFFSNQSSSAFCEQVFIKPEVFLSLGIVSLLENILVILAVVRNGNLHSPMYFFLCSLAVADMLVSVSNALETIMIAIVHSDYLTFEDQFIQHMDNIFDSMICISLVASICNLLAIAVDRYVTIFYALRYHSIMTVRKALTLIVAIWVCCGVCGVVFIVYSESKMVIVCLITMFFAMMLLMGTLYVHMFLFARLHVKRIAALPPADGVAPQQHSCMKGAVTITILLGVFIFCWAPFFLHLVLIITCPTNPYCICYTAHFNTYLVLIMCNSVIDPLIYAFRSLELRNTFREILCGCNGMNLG
T9 sequence (P25103 whole entry): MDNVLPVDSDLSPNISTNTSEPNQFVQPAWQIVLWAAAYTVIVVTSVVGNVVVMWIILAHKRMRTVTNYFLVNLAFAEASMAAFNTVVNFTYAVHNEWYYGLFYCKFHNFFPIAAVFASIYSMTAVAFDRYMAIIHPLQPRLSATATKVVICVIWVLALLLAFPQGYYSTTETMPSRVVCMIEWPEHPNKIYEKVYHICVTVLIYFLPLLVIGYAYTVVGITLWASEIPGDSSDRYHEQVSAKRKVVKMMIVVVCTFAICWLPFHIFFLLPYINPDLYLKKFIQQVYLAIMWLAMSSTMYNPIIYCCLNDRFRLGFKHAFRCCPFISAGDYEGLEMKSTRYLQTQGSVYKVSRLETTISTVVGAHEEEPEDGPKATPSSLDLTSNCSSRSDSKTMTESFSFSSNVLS
T11 sequence (Q99705 whole entry): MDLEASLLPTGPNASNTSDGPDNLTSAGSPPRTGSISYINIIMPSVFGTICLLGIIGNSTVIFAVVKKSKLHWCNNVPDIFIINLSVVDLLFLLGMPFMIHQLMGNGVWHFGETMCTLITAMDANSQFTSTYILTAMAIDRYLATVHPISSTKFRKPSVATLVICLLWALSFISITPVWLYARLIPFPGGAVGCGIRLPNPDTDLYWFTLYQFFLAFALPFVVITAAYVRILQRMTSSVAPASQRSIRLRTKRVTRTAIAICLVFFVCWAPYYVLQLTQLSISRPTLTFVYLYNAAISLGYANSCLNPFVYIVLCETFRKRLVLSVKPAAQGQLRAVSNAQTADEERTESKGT
T6 sequence (P32245 whole entry): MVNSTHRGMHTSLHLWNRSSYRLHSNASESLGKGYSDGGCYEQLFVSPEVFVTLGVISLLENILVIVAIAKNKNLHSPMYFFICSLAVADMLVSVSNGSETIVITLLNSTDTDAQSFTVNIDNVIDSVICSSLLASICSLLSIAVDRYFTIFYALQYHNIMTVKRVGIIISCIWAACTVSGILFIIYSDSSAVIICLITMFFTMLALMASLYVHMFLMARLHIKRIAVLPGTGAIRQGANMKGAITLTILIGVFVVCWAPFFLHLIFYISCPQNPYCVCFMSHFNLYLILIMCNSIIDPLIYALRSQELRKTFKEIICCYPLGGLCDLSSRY
T5 sequence (P35372 whole entry): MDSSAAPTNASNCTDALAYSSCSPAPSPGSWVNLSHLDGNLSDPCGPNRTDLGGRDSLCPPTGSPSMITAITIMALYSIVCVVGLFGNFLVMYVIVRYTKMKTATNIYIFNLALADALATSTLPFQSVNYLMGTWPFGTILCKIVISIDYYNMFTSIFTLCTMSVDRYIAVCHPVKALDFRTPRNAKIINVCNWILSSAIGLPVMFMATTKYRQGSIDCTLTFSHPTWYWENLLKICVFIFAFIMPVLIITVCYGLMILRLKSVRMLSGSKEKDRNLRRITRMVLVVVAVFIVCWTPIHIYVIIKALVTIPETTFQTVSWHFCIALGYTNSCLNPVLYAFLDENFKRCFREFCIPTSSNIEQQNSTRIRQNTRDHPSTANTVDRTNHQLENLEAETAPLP
T1 sequence (P41145 whole entry): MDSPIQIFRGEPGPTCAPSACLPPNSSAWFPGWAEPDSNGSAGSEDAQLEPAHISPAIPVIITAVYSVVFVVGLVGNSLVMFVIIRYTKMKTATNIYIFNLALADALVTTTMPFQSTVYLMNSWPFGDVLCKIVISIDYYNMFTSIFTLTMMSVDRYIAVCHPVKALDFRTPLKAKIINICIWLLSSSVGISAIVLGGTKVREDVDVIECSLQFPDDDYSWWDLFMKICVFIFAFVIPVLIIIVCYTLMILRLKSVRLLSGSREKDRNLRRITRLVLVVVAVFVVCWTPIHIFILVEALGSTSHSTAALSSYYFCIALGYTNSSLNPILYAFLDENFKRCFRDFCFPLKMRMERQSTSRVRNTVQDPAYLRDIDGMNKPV
T7 sequence (P41143 whole entry): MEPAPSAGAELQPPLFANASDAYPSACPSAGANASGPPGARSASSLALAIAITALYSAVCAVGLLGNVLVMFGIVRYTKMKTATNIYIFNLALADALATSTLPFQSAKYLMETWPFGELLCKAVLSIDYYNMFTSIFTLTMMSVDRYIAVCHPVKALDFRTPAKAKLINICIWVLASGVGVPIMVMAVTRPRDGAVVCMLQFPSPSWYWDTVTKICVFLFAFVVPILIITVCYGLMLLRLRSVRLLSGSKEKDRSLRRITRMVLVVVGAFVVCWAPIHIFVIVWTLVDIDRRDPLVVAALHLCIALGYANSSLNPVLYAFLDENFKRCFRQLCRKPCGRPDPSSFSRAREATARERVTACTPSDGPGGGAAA

Row | SMILES | A2: inhibition of radioligand binding, human κ-opioid (KOP) [1] | A3: inhibition of radioligand binding, human melanocortin (MC3) [2] | A9: inhibition of radioligand binding, human neuropeptide Y (NPY-Y1) [4] | A7: inhibition of radioligand binding, human μ-opioid (MOP) [5] | A4: inhibition of radioligand binding, human melanocortin (MC4) [6] | A1: inhibition of radioligand binding, human δ-opioid (DOP) [7] | A8: inhibition of radioligand binding, human neurokinin (NK1) [9] | A11: inhibition of radioligand binding, mouse urotensin (mUR2) [10] | A6: inhibition of radioligand binding, human melanin-concentrating hormone (MCH1) [11] | A2: inhibition of radioligand binding ([1]; filtration) | A3: inhibition of radioligand binding ([2]; FlashPlate) | A10: inhibition of radioligand binding ([3]; FlashPlate) | A9: inhibition of radioligand binding ([4]; FlashPlate) | A7: inhibition of radioligand binding ([5]; FlashPlate) | A4: inhibition of radioligand binding ([6]; FlashPlate) | A1: inhibition of radioligand binding ([7]; FlashPlate) | A5: inhibition of radioligand binding ([8]; FlashPlate) | A8: inhibition of radioligand binding ([9]; filtration) | A11: inhibition of radioligand binding ([10]; FlashPlate) | A6: inhibition of radioligand binding ([11]; [125I]-S36057, FlashPlate) | other results
1 | NCCCC(=O)NC1C(OCc2ccc(Cl)cc2)OC(COCc2ccccc2)C(O)C1OCc1ccccc1 (single isomer, unassigned) [compound 503] | − (“−” indicates less than 50% inhibition at 10 μM) | − (“−” indicates less than 50% inhibition at 10 μM) | − (“−” indicates less than 50% inhibition at 10 μM) | − (“−” indicates less than 50% inhibition at 10 μM) | − (“−” indicates less than 50% inhibition at 10 μM) | − (“−” indicates less than 50% inhibition at 10 μM) | + (“+” indicates greater than 50% inhibition at 10 μM) | − (“−” indicates less than 50% inhibition at 10 μM) | − (“−” indicates less than 50% inhibition at 10 μM) |  |  |  |  |  |  |  |  |  |  |  | A10: inhibition of radioligand binding, human opioid (ORL1) ([3]; 10 µM): − (“−” indicates less than 50% inhibition at 10 μM); A5: inhibition of radioligand binding, human melanocortin (MC5) ([8]; 10 µM): + (“+” indicates greater than 50% inhibition at 10 μM)
2 | CO[C@H]1[C@H](O)[C@@H](COCc2ccc3ccccc3c2)OC(OCc2ccc(Cl)cc2)[C@@H]1NC(=O)C1CCCN1 (stereo partly shown) [compound 352] | − (“−” indicates less than 50% inhibition at 10 μM) | − (“−” indicates less than 50% inhibition at 10 μM) | − (“−” indicates less than 50% inhibition at 10 μM) | − (“−” indicates less than 50% inhibition at 10 μM) | − (“−” indicates less than 50% inhibition at 10 μM) | − (“−” indicates less than 50% inhibition at 10 μM) | + (“+” indicates greater than 50% inhibition at 10 μM) | − (“−” indicates less than 50% inhibition at 10 μM) | − (“−” indicates less than 50% inhibition at 10 μM) |  |  |  |  |  |  |  |  |  |  |  | A10: inhibition of radioligand binding, human opioid (ORL1) [3]: − (“−” indicates less than 50% inhibition at 10 μM); A5: inhibition of radioligand binding, human melanocortin (MC5) [8]: − (“−” indicates less than 50% inhibition at 10 μM)
3 | COCC1OC(OCc2ccc(Cl)cc2)C(NC(=O)CCCNC(=N)N)C(OCc2ccc3ccccc3c2)C1O (stereo not shown) [compound 213] |  |  |  |  |  |  |  |  |  | + (“+” indicates greater than 50% inhibition at 10 μM) | − (“−” indicates less than 50% inhibition at 10 μM) | + (“+” indicates greater than 50% inhibition at 10 μM) | − (“−” indicates less than 50% inhibition at 10 μM) | − (“−” indicates less than 50% inhibition at 10 μM) | + (“+” indicates greater than 50% inhibition at 10 μM) | − (“−” indicates less than 50% inhibition at 10 μM) | + (“+” indicates greater than 50% inhibition at 10 μM) | + (“+” indicates greater than 50% inhibition at 10 μM) | − (“−” indicates less than 50% inhibition at 10 μM) | + (“+” indicates greater than 50% inhibition at 10 μM) | 
4 | NCCC(=O)NC1C(OCc2ccc3ccccc3c2)OC(COCc2ccc3ccccc3c2)C(O)C1OCc1ccc2ccccc2c1 (stereo not shown) [compound 384] |  |  |  |  |  |  |  |  |  |  |  |  |  |  |  |  |  |  |  |  | A2: inhibition of radioligand binding ([1]; human KOP membranes): − (“−” indicates less than 50% inhibition at 10 μM); A3: inhibition of radioligand binding ([2]; human MC3 membranes): + (“+” indicates greater than 50% inhibition at 10 μM); A10: inhibition of radioligand binding ([3]; human ORL1 membranes): − (“−” indicates less than 50% inhibition at 10 μM); A9: inhibition of radioligand binding ([4]; human NPY-Y1 membranes): − (“−” indicates less than 50% inhibition at 10 μM); A7: inhibition of radioligand binding ([5]; human MOP membranes): − (“−” indicates less than 50% inhibition at 10 μM); A4: inhibition of radioligand binding ([6]; human MC4 membranes): + (“+” indicates greater than 50% inhibition at 10 μM); A1: inhibition of radioligand binding ([7]; human DOP membranes): − (“−” indicates less than 50% inhibition at 10 μM); A5: inhibition of radioligand binding ([8]; human MC5 membranes): + (“+” indicates greater than 50% inhibition at 10 μM); A8: inhibition of radioligand binding ([9]; human NK1 membranes): + (“+” indicates greater than 50% inhibition at 10 μM); A11: inhibition of radioligand binding ([10]; mouse mUR2 membranes): − (“−” indicates less than 50% inhibition at 10 μM); A6: inhibition of radioligand binding ([11]; [125I]-S36057, human MCH1 membranes): + (“+” indicates greater than 50% inhibition at 10 μM)
5 | CSC1OC(COCc2ccc3ccccc3c2)C(O)C(OCc2ccccc2)C1NC(=O)CCNC(=N)N (stereo not shown) [compound 262] |  |  |  |  |  |  |  |  |  | − (“−” indicates less than 50% inhibition at 10 μM) | − (“−” indicates less than 50% inhibition at 10 μM) | − (“−” indicates less than 50% inhibition at 10 μM) | − (“−” indicates less than 50% inhibition at 10 μM) | − (“−” indicates less than 50% inhibition at 10 μM) | − (“−” indicates less than 50% inhibition at 10 μM) | − (“−” indicates less than 50% inhibition at 10 μM) | + (“+” indicates greater than 50% inhibition at 10 μM) | + (“+” indicates greater than 50% inhibition at 10 μM) | − (“−” indicates less than 50% inhibition at 10 μM) | − (“−” indicates less than 50% inhibition at 10 μM) | 
